Reference: the supplement of paper PMC10307832

Columns and labels:
Assay in all cases: relative viability (nuclei count vs DMSO), 5 days (fraction); higher = more cells survive
Tivantinib + Trametinib = compound: O=C1NC(=O)[C@@H](c2cn3c4c(cccc24)CCC3)[C@@H]1c1c[nH]c2ccccc12 [Tivantinib] + CC(=O)Nc1cccc(-n2c(=O)n(C3CC3)c(=O)c3c(Nc4ccc(I)cc4F)n(C)c(=O)c(C)c32)c1 [Trametinib] (partner 0.02 µM)
Summary of the method: (§1)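 Nuclei were stained with Hoechst during a one-step fixation (final 0.05% Triton X-100, 1% formaldehyde, 1 ug/ml Hoechst) carried out 5 days after dosing, then counted on 4× images. The cells, lung cancer lines in 1536-well plates, had been dosed by pin tool the day after seeding with one drug alone or a fixed anchor-drug dose plus five library-drug doses (not always all listed) in √10 steps. Relative viability is the nuclei count in treated wells divided by that in vehicle wells, and each value is the median of duplicate plates.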

Tivantinib + Pemetrexed = compound: O=C1NC(=O)[C@@H](c2cn3c4c(cccc24)CCC3)[C@@H]1c1c[nH]c2ccccc12 [Tivantinib] + Nc1nc2[nH]cc(CCc3ccc(C(=O)N[C@@H](CCC(=O)O)C(=O)O)cc3)c2c(=O)[nH]1 [Pemetrexed] (partner 0.2 µM)
Summary of the method: as §1

Tivantinib + Foretinib = compound: O=C1NC(=O)[C@@H](c2cn3c4c(cccc24)CCC3)[C@@H]1c1c[nH]c2ccccc12 [Tivantinib] + COc1cc2c(Oc3ccc(NC(=O)C4(C(=O)Nc5ccc(F)cc5)CC4)cc3F)ccnc2cc1OCCCN1CCOCC1 [Foretinib] (partner 0.25 µM)
Summary of the method: as §1

Crenolanib + Pemetrexed = compound: CC1(COc2ccc3c(c2)ncn3-c2ccc3cccc(N4CCC(N)CC4)c3n2)COC1 [Crenolanib] + Nc1nc2[nH]cc(CCc3ccc(C(=O)N[C@@H](CCC(=O)O)C(=O)O)cc3)c2c(=O)[nH]1 [Pemetrexed] (partner 0.2 µM)
Summary of the method: as §1

Row | Cell Line | relative viability (Tivantinib + Trametinib; first compound 0.01 µM) | relative viability (Tivantinib + Trametinib; first compound 0.03162 µM) | relative viability (Tivantinib + Trametinib; first compound 0.1 µM) | relative viability (Tivantinib + Trametinib; first compound 0.3162 µM) | relative viability (Tivantinib + Pemetrexed; first compound 0.01 µM) | relative viability (Tivantinib + Pemetrexed; first compound 0.03162 µM) | relative viability (Tivantinib + Pemetrexed; first compound 0.1 µM) | relative viability (Tivantinib + Pemetrexed; first compound 0.3162 µM) | relative viability (Tivantinib + Foretinib; first compound 0.01 µM) | relative viability (Tivantinib + Foretinib; first compound 0.03162 µM) | relative viability (Tivantinib + Foretinib; first compound 0.1 µM) | relative viability (Tivantinib + Foretinib; first compound 0.3162 µM) | relative viability (Crenolanib + Pemetrexed; first compound 0.01 µM) | relative viability (Crenolanib + Pemetrexed; first compound 0.03162 µM) | relative viability (Crenolanib + Pemetrexed; first compound 0.1 µM) | relative viability (Crenolanib + Pemetrexed; first compound 0.3162 µM) | relative viability (Crenolanib + Pemetrexed; first compound 1 µM)
1 | NCI-H2023 | 0.593 | 0.551 | 0.433 | 0.414 | 0.278 | 0.206 | 0.253 | 0.191 | 0.787 | 0.841 | 0.816 | 0.516 | 0.206 | 0.238 | 0.231 | 0.239 | 0.234
2 | SW 900 | 0.775 | 0.649 | 0.734 | 0.763 | 0.551 | 0.497 | 0.475 | 0.515 | 0.831 | 0.934 | 0.818 | 0.888 | 0.502 | – | 0.48 | 0.509 | 0.484
3 | NCI-H3122 | 0.219 | 0.216 | 0.199 | 0.202 | 0.179 | 0.199 | 0.196 | 0.162 | 0.947 | 0.982 | 0.909 | 0.951 | 0.205 | 0.212 | 0.203 | 0.203 | 0.18
4 | HCC-827 | 0.54 | 0.576 | 0.461 | – | 0.251 | 0.257 | 0.272 | – | 1.01 | 1.12 | 0.957 | 0.485 | 0.256 | 0.277 | 0.195 | 0.26 | 0.268
5 | LU99A | 0.436 | 0.494 | 0.505 | 0.521 | 0.173 | 0.201 | 0.16 | 0.178 | 0.692 | 0.84 | 0.737 | 0.6 | 0.22 | 0.204 | 0.151 | 0.197 | 0.198
6 | LC-2-ad | 0.912 | 0.879 | 0.851 | 0.903 | 0.3 | 0.252 | 0.276 | 0.259 | 0.849 | 0.924 | 0.85 | 0.597 | 0.265 | 0.287 | 0.277 | 0.291 | 0.261
7 | NCI-H322M | 0.486 | 0.471 | 0.449 | – | 0.682 | 0.614 | 0.588 | – | 1.02 | 0.922 | 0.943 | – | 0.597 | 0.583 | 0.631 | 0.6 | 0.605
8 | HOP-62 | 0.458 | 0.346 | 0.356 | 0.37 | 0.333 | 0.29 | 0.368 | 0.247 | 1.17 | 1.02 | 1.06 | 1.14 | 0.322 | 0.345 | 0.373 | 0.362 | 0.417
9 | SW 1573 | 0.682 | 0.488 | 0.561 | 0.452 | 0.918 | 0.797 | 0.818 | 0.76 | 1.04 | 0.83 | 0.804 | 0.863 | 0.784 | 0.801 | 0.719 | 0.942 | 0.832
10 | NCI-H1993 | 0.545 | 0.462 | 0.565 | 0.437 | 0.621 | 0.53 | 0.586 | 0.541 | 0.808 | 0.762 | 0.766 | 0.545 | 0.606 | 0.591 | 0.549 | 0.559 | 0.544
11 | NCI-H1734 | 0.611 | 0.676 | 0.677 | 0.604 | 0.43 | 0.352 | 0.417 | 0.432 | 0.952 | 0.937 | 0.743 | 0.598 | 0.441 | 0.423 | 0.423 | 0.395 | 0.38
12 | NCI-H1666 | 0.815 | 0.786 | 0.827 | 0.814 | 0.841 | 0.867 | 0.853 | 0.673 | 0.936 | 1.01 | 0.979 | 0.827 | 0.886 | 0.855 | 0.855 | 0.921 | 0.831
13 | NCI-H460 | 0.172 | 0.114 | 0.286 | 0.169 | 0.059 | 0.0663 | 0.0596 | 0.0576 | 0.935 | 1.06 | 0.94 | 0.97 | 0.063 | 0.067 | 0.075 | 0.0642 | 0.0669
14 | LCLC-97TM1 | 0.211 | 0.218 | 0.189 | 0.178 | 0.148 | 0.165 | 0.157 | 0.191 | 0.993 | 0.928 | 0.911 | 0.888 | 0.192 | 0.188 | 0.182 | 0.197 | 0.184
15 | LOU-NH91 | 0.724 | 0.762 | 0.81 | 0.691 | 0.394 | 0.428 | 0.4 | 0.468 | 0.901 | 0.925 | 0.939 | 0.573 | 0.399 | 0.45 | 0.353 | 0.423 | 0.383
16 | NCI-H838 | 0.542 | 0.501 | 0.469 | 0.527 | 0.253 | 0.258 | 0.239 | 0.227 | 1 | 1.07 | 0.992 | 1.07 | 0.247 | 0.253 | 0.258 | 0.264 | 0.281
17 | NCI-H1437 | 0.637 | 0.464 | 0.441 | 0.514 | 0.336 | 0.319 | 0.315 | 0.298 | 1.26 | 1.34 | 1.3 | 1.25 | 0.336 | 0.3 | 0.297 | 0.352 | 0.336
18 | NCI-H2087 | 0.217 | 0.184 | 0.227 | 0.172 | 0.645 | 0.78 | 0.58 | 0.603 | 1.1 | 1.16 | 0.914 | 1.13 | 0.719 | 0.7 | 0.684 | 0.555 | 0.675
